Data published in the COVID Moonshot data (paper PMC7615835).
Values joined by “and” are separate entries in the source; they are usually repeats but may differ in a detail not shown here. Equal entries are not always repeated.

These compounds were tested against SARS-CoV-2 Main Protease (SARS-CoV-2) (UniProt P0DTD1).

Row | SMILES | IC50
1 | CNC(=O)Nc1ccc(N(Cc2ccsc2)C(=O)Cn2nnc3ccccc32)cc1 | 1.42 µM
2 | Cc1ccc2c(c1)c(CCN)cn2-c1cc(Cl)cc(CC(=O)Nc2cncc3ccccc23)c1 | 1.63 µM
3 | Cn1c(NC(=O)c2cccnc2-n2cccn2)nc2cc(F)ccc21 | > 99.5 µM
4 | O=C(Cc1cc(Cl)cc(Nc2cccc(Br)n2)c1)Nc1cncc2ccccc12 | 1.92 µM
5 | Cc1cc(N)ncc1NC(=O)C1CCOc2ccc(Cl)cc21 (stereo unspecified) | > 99.5 µM
6 | O=C(Cc1cc(Cl)cc(NCCc2ccc(C(F)(F)F)cc2)c1)Nc1cncc2ccccc12 | 5.57 µM
7 | Cc1csc2ncc(C(=O)Nc3cccc4ncccc34)c(=O)n12 | > 99.5 µM
8 | O=C(Cc1cc(Cl)cc(Nc2cccc(-c3ccccc3)c2)c1)Nc1cncc2ccccc12 | 5.85 µM
9 | Cc1ccccc1C(C)N(C(=O)c1cnc[nH]1)C(C(=O)NCCc1cccc(F)c1)c1cccnc1 (stereo unspecified) | > 99 µM
10 | Cc1ccc(Nc2cc(Cl)cc(CC(=O)Nc3cncc4ccccc34)c2)cc1Br | 2.07 µM
11 | Cc1nc2ccc(NC(=O)Cn3ncn4nccc4c3=O)cc2s1 | > 99.5 µM
12 | CC(C)(C)c1ccc(N(C(=O)c2nc3ncc(CCO)cn3n2)C(C(=O)NCCc2cccc(F)c2)c2cccnc2)cc1 (stereo unspecified) | > 99.5 µM
13 | COc1cc(Nc2cc(Cl)cc(CC(=O)Nc3cncc4ccccc34)c2)c(Cl)cc1Cl | 6.8 µM
14 | Cc1cc(C(=O)N2Cc3ccc(Cl)cc3C3(CCN(c4cncc5ccccc45)C3=O)C2)n(C)n1 (stereo unspecified) | 0.464 µM
15 | O=C(Cc1cc(Cl)cc(NCc2ccc([N+](=O)[O-])cc2)c1)Nc1cncc2ccccc12 | 1.82 µM
16 | O=C(Cc1cncc2ccccc12)Nc1cccc(Cl)c1 | 6.47 µM
17 | CC(NCc1c[nH]c2nccnc12)c1cc(F)ccc1N1CCC(O)CC1 (stereo unspecified) | > 99.5 µM
18 | CC(C)Cn1cc(NC(=O)NCc2ccco2)c2ccccc2c1=O | 29.6 µM
19 | Cc1ccc(S(=O)(=O)N2CCN(C(=O)CCl)CC2)cc1 | 21 µM
20 | O=C(Nc1cncc2ccccc12)[C@@H]1COc2ccc(Cl)cc21 (stereo in doubt) | 0.529 µM and 0.67 µM and 0.483 µM
21 | Cn1c(C(NC(=O)Cc2cc3ccccc3[nH]2)c2cccc(Cl)c2)nc2ccccc21 (stereo unspecified) | > 99.5 µM
22 | O=C(Cc1cccc(Cl)c1)Nc1cncc2[nH]ccc12 | 6.19 µM
23 | O=C(CC1(C(=O)Nc2cncc3ccccc23)CCOc2ccc(Cl)cc21)N1CCC2C1CCCN2CCO (stereo unspecified) | 4.66 µM
24 | O=C(Cc1cc(Cl)cc(NCc2ccc(Oc3ccccc3)cc2)c1)Nc1cncc2ccccc12 | 5.82 µM
25 | O=C(Cc1cc(Cl)cc(Nc2cnc(Br)cn2)c1)Nc1cncc2ccccc12 | 2.07 µM
26 | Cc1ccc(NC2=C(c3ccccc3)C(=O)N(Cc3cccnc3)C2=O)cc1C | > 99.5 µM

Row | SMILES | IC50
27 | Cc1cc(N2CCC(C)N(Cc3ccccc3)CC2)n2ncnc2n1 (stereo unspecified) | > 99.5 µM
28 | O=C(Cc1cc(Cl)cc(Nc2ccc(Cl)c(Cl)c2F)c1)Nc1cncc2ccccc12 | 2.26 µM
29 | O=C(Cc1cc(Cl)cc(Nc2ccc([N+](=O)[O-])cc2C(F)(F)F)c1)Nc1cncc2ccccc12 | 2.01 µM
30 | Cc1ccncc1NC(=O)Cc1cc(Cl)cc(NC2(C)CCC(F)(F)CC2)c1 | 14.7 µM
31 | CN(C(=O)OC(C)(C)C)[C@H]1CCN(c2cc(Cl)cc(CC(=O)Nc3cncc4ccccc34)c2)C1 (stereo in doubt) | 4.21 µM
32 | COc1ccc(S(=O)(=O)N2CCN(C(=O)CCl)CC2)cc1 | 27.5 µM
33 | Cc1nnn(NC(=O)Cc2cccc(Cl)c2)c1C | 14.2 µM
34 | O=C(CCl)N1CCCN(S(=O)(=O)Cc2ccccc2)CC1 | 8.81 µM
35 | CCCCc1nc(-c2nccn2Cc2ccoc2)c[nH]1 | 14.3 µM
36 | Cn1nncc1CC(=O)NC(c1ccccc1)c1nc2ccccc2n1C (stereo unspecified) | 35.7 µM
37 | O=C(NCCc1cccc(F)c1)C(c1cccnc1)N(C(=O)c1cocn1)c1ccc2c(c1)CCCS2(=O)=O (stereo unspecified) | > 99.5 µM
38 | CC(C)(C)c1ccc(N(C(=O)c2nc(CN3CCOCC3)cs2)C(C(=O)NCCc2cccc(F)c2)c2cccnc2)cc1 (stereo unspecified) | > 99.5 µM
39 | N#Cc1cnn(C(=O)c2cccs2)c1C1CC1 | 3.24 µM
40 | O=C(CN1CC2(CCN(c3cncc4ccccc34)C2=O)c2cc(Cl)ccc2S1(=O)=O)NCC1CC1 (stereo unspecified) | 0.203 µM
41 | CNC(=O)CN1Cc2ccc(Cl)cc2[C@]2(CCN(c3cncc4c3CCCC4)C2=O)C1 (stereo in doubt) | > 99.5 µM
42 | O=C(Cc1cc(Cl)cc(Nc2ccc(F)c(Br)c2)c1)Nc1cncc2ccccc12 | 1.97 µM
43 | O=C(Cc1cc(Cl)cc(NCc2ccc(Cl)c(C(F)(F)F)c2)c1)Nc1cncc2ccccc12 | 2.98 µM
44 | O=C(Cc1cc(Cl)cc(N2CCC(Cc3ccccc3)CC2)c1)Nc1cncc2ccccc12 | 3.35 µM
45 | CCN1CCCC1C1CCCN1C(=O)CCc1c[nH]c2ccccc12 (stereo unspecified) | > 99.5 µM
46 | CCOC(=O)c1cccc(NC(=O)[C@@H]2CN(C(=O)CCl)CCN2S(=O)(=O)c2ccsc2)c1 (stereo in doubt) | 0.459 µM
47 | O=C(Cc1cc(Cl)cc(Nc2cc(Cl)c(F)cc2F)c1)Nc1cncc2ccccc12 | 1.74 µM
48 | CCC(C(=O)O)N1CCCC(NC(=O)c2ccc3ccccc3c2)C1 (stereo unspecified) | > 99.5 µM
49 | O=C(Nc1cncc2ccccc12)C12CCC(O1)c1ccc(Cl)cc12 (stereo unspecified) | 11.1 µM
50 | CCCCc1nc(-c2nccn2CC(F)(F)F)c[nH]1 | 23.1 µM
51 | O=C(Cc1cc(Cl)cc(Nc2ccc(-n3ccnc3)cc2)c1)Nc1cncc2ccccc12 | 2.46 µM
52 | O=C(CCl)N1CCN(Cc2cc(Cl)ccc2CNC(=O)N2CCOCC2)CC1 | 3.8 µM

Row | SMILES | IC50
53 | Cc1ccncc1N1CCC(c2cccc(Cl)c2)S1(=O)=O (stereo unspecified) | 85 µM
54 | Cc1nc2ccc(N(C(=O)c3cnc[nH]3)C(C(=O)NCCc3cccc(F)c3)c3cccnc3)cc2o1 (stereo unspecified) | > 99 µM
55 | Nc1ccc2[nH]c(C(=O)N(C(=O)c3ccco3)C(C(=O)NCCc3cccc(F)c3)c3cccnc3)cc2c1 (stereo unspecified) | > 99.5 µM
56 | c1ccc(-c2cc(Sc3nnc(-c4cccs4)o3)n3ncnc3n2)cc1 | 0.221 µM
57 | CNC(=O)CN1CC2(CCN(c3cncc4cc(Cl)ccc34)C2=O)c2cc(Cl)ccc2C1=O (stereo unspecified) | 0.449 µM
58 | O=C(Cc1cccc(Cl)c1)NC1CS(=O)(=O)Cc2ccccc21 (stereo unspecified) | > 99.5 µM
59 | O=C(Cc1cc(Cl)cc(Nc2ccc(OCc3ccccn3)c(Cl)c2)c1)Nc1cncc2ccccc12 | 2.09 µM
60 | O=c1c2ccccc2c(-c2ccc(Br)cc2)nn1CC(O)CN1CCOCC1 (stereo unspecified) | > 99.5 µM
61 | O=C(Cc1cccc(Cl)c1)Nc1n[nH]c2ccccc12 | > 99.5 µM
62 | Cc1ccncc1OCCNC(=O)C(C)(C)c1cccc(Cl)c1 | > 99.5 µM
63 | Cc1ccncc1NC(=O)Cc1cc(Cl)cc(-c2ncc[nH]2)c1 | > 99.5 µM
64 | COc1ccc(C(Cc2ccsc2)C(=O)Nc2n[nH]c3ccccc23)cc1 (stereo unspecified) | > 99.5 µM
65 | O=C(Cc1cc(Cl)cc(N2CCn3c(nnc3C(F)(F)F)C2)c1)Nc1cncc2ccccc12 | 2.01 µM
66 | CC(C)(C)c1ccc(N(C(=O)C2CCCO2)C(C(=O)NCCc2cccc(F)c2)c2cccnc2)cc1 (stereo unspecified) | 5.56 µM
67 | O=C(c1ccc2nnnn2c1)N1CCn2c(cc3ccccc32)C1 | > 99.5 µM
68 | CC(C)=CCC[C@@](C)(O)[C@H]1CC[C@]2(C)[C@@H]1[C@H](O)C[C@@H]1[C@@]3(C)CC[C@H](O[C@@H]4O[C@H](CO)[C@@H](O)[C@H](O)[C@H]4O)C(C)(C)[C@@H]3CC[C@]12C (stereo in doubt) | > 99.5 µM
69 | O=C(Cc1cc(Cl)cc(NCCc2ccc(Cl)c(Cl)c2)c1)Nc1cncc2ccccc12 | 5.41 µM
70 | O=C(CCl)Nc1nc2c(S(=O)(=O)NCCc3ccccc3)cccc2s1 | 5.03 µM and 14.2 µM and 37.5 µM
71 | COCCN1CC(C(=O)Nc2cncc3ccccc23)c2cc(Cl)ccc2C1=O (stereo unspecified) | 0.267 µM
72 | O=C(Cc1cccc(Cl)c1)Nc1cncc2c(Cl)cccc12 | > 99.5 µM
73 | CN(c1ccc2c(NC(=O)C3CN(S(=O)(=O)CC4(C#N)CC4)Cc4ccc(Cl)cc43)cncc2c1)S(C)(=O)=O (stereo unspecified) | 0.232 µM
74 | O=C(Cc1cc(Cl)cc(Nc2cc(Cl)cnc2Br)c1)Nc1cncc2ccccc12 | 1.99 µM
75 | C[C@H]1C[C@H](C(=O)Nc2cncc3ccccc23)c2cc(Cl)ccc2O1 (stereo in doubt) | 52.1 µM
76 | CC(C)(C)c1ccc(N(C(=O)c2cocn2)C(C(=O)NCCc2cccc(F)c2)c2cccnc2)cc1 (stereo unspecified) | 0.557 µM
77 | O=C(c1cc(=O)[nH]c2ccccc12)N1CCN(Cc2cccc(C(F)(F)F)c2)CC1 | 34.2 µM
78 | N#Cc1cccc(CN2CCN(C(=O)CCl)CC2)c1 | 19.7 µM

Row | SMILES | IC50
79 | O=C(Nc1cncc2ccccc12)C1CN(C(=O)c2cnco2)Cc2ccc(Cl)cc21 (stereo unspecified) | 1.07 µM
80 | NC(=O)c1ccc2c(NC(=O)Cc3cccc(Cl)c3)cncc2c1 | 1.59 µM
81 | NC(=O)c1ccc(Cl)c(Nc2cc(Cl)cc(CC(=O)Nc3cncc4ccccc34)c2)c1 | 1.79 µM
82 | Cn1ncc(NC(=O)C2CCOc3ccc(Cl)cc32)c1C(F)F (stereo unspecified) | > 99.5 µM
83 | O=C(Cc1cccc(Cl)c1)Nc1cncc2[nH]ncc12 | 21.8 µM
84 | O=C(c1cc(=O)[nH]c2ccccc12)N1CCN(c2ccccc2)CC1 | 27.5 µM
85 | Cn1cncc1NC(=O)Cc1cccc(Cl)c1 | 93.9 µM
86 | Cc1nc(N2CCN(S(=O)(=O)c3ccccc3)CC2)sc1S(N)(=O)=O | > 99.5 µM
87 | Cc1nc2cc(C(=O)NNc3ccnc4cccnc34)ccc2o1 | > 99.5 µM
88 | COc1ccccc1N1CCN(c2cc(Cl)cc(CC(=O)Nc3cncc4ccccc34)c2)CC1 | 2.98 µM
89 | CC(CCc1ccccc1)N1CCN(C(=O)CCl)CC1 (stereo unspecified) | 20.3 µM
90 | N#Cc1cccc(NC(=O)[C@@H]2CN(C(=O)CCl)CCN2S(=O)(=O)c2ccsc2)c1 (stereo in doubt) | 0.416 µM
91 | O=C(Nc1cncc2ccccc12)C1(CCC2CC2)CCOc2ccc(Cl)cc21 (stereo unspecified) | 40.7 µM
92 | O=C(Cc1cc(Cl)cc(Nc2c(F)c(F)cc(F)c2F)c1)Nc1cncc2ccccc12 | 2.03 µM
93 | NCc1cn(CC(=O)N(Cc2ccsc2)c2ccc(-n3cnnc3)cc2)nn1 | > 99.5 µM
94 | Cc1ccnc(N)c1NC(=O)C1CCOc2ccc(Cl)cc21 (stereo unspecified) | 69.5 µM
95 | CC(C)(C#N)CS(=O)(=O)N1Cc2ccc(Cl)cc2[C@@H](C(=O)Nc2cncc3ccccc23)C1 (stereo in doubt) | 13.2 µM
96 | COc1ccc(CNCC2(C(=O)Nc3cncc4ccccc34)CCOc3ccc(Cl)cc32)cc1OCC(N)=O (stereo unspecified) | 11.5 µM
97 | CC(C)(C)c1ccc(N(C(=O)c2c[nH]nn2)C(C(=O)NCCc2cccc(F)c2)c2cccnc2)cc1 (stereo unspecified) | 1.17 µM
98 | N#Cc1ncc(F)cn1 | > 99.5 µM
99 | CC(C)(C)c1ccc(N(C(=O)c2cocn2)C(C(=O)NCCc2nnn[nH]2)c2cccnc2)cc1 (stereo unspecified) | > 99.5 µM
100 | CC(C)(C)c1ccc(N(C(=O)c2ccco2)C(C(=O)NCCc2cccc(F)c2)c2cc(=O)[nH]c3ccccc23)cc1 (stereo unspecified) | 2.28 µM
101 | Cc1ccncc1NC(=O)CCc1cccc(Cl)c1 | > 99.5 µM
